Laboratory results from publication PMC3108181 (Biochimica et biophysica acta, 2011).
Values joined by “and” are separate entries in the source; they are usually repeats but may differ in a detail not shown here. Identical values can stand only once. “Also recorded” adds a separate entry of the source. Like-named read-outs stand apart in the source and are kept apart here.

Experiments:
[1] = system: Complex II/III: succinate:cytochrome C-oxidoreductase; experiment: Complex II/III activity in lysed rat brain mitochondria; assay type: biochemical
[2] = system: Complex IV: ferrocytochrome C oxidase:oxygen oxidoreductase; experiment: Complex IV activity in lysed rat brain mitochondria; assay type: biochemical; details: for Effect on complex IV activity: lysed rat brain mitochondria, 15 min pre-incubation at room temperature; for Prevention of the complex IV inhibition observed with DAH: (2U) SOD plus (2U) Cat, 10 uM pargyline and 10 uM clorgyline, DTT 50 uM, data not shown
[3] = system: complex I; details: cited from earlier work
[4] = system: Complex I/III: NADH:cytochrome C-oxidoreductase; experiment: Complex I/III activity in lysed rat brain mitochondria; assay type: biochemical
[5] = system: complex IV; details: cited from earlier work; for Inhibition of complex IV: 400 uM DA, 2 hrs of incubation
[6] = biological target: Complex II: succinate:ubiquinone oxidoreductase (Rattus norvegicus, UniProt P21913+Q641Z9+Q6PCT8+Q920L2); experiment: Complex II activity; assay type: biochemical; details: for Effect on complex II activity: lysed rat brain mitochondria, 15 min pre-incubation at room temperature, malonate sensitive activity
Sequence of Complex II: succinate:ubiquinone oxidoreductase (Q920L2 35-656): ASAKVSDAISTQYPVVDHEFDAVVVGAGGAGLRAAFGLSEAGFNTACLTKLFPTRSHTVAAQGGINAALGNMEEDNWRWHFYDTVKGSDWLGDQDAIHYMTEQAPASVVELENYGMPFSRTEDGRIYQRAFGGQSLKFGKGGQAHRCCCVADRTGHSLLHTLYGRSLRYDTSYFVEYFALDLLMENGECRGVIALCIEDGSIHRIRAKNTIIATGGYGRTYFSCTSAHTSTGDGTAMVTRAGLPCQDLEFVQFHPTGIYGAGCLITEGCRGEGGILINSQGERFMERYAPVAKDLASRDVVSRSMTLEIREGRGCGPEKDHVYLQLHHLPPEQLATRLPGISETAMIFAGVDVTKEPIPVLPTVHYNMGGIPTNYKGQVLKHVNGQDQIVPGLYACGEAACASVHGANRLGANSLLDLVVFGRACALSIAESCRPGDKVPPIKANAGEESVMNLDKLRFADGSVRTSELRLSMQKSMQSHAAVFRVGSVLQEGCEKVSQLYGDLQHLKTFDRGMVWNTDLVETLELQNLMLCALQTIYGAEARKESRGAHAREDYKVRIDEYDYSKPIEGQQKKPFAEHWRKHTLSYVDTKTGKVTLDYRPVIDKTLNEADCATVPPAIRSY
Sequence of Complex II: succinate:ubiquinone oxidoreductase (P21913 31-282): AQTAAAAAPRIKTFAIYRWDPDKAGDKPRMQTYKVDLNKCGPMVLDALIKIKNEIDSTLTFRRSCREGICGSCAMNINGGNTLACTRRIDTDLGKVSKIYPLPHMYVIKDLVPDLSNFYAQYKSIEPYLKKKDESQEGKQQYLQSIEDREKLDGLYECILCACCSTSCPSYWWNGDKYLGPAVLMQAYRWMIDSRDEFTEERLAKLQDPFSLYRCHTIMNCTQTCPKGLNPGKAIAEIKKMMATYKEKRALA
Sequence of Complex II: succinate:ubiquinone oxidoreductase (Q641Z9 1-169): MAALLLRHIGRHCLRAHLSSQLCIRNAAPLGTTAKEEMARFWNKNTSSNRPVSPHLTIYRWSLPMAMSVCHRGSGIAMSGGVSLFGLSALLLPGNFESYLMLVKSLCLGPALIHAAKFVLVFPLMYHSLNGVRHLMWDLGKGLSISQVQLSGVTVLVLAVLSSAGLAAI
Sequence of Complex II: succinate:ubiquinone oxidoreductase (Q6PCT8 57-159): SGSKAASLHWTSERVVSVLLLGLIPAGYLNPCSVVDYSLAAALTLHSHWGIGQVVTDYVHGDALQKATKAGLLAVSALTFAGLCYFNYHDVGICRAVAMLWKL

[7] = system: Complex I: NADH:ubiquinone oxidoreductase; experiment: Complex I activity in lysed rat brain mitochondria; assay type: biochemical; details: for Effect on complex I activity: lysed rat brain mitochondria, 30 min pre-incubation (same with no pre-incubation)
[8] = biological target: Complex III: ubiquinol: ferricytochrome C oxidoreductase; experiment: Complex III activity in lysed rat brain mitochondria; assay type: biochemical; details: for Inhibition of complex III activity: myxothiazol (60uM) and antimycin A (0.002mg/ml) together, parallel control
[9] = system: NADH-Oxidase (complexes I, III and IV); experiment: NADH-oxidase activity in lysed rat brain mitochondria; assay type: biochemical
[10] = read-out: Inhibition of complex II activity

NCCc1ccc(O)c(O)c1 [DAH, dopamine]
Effect on complex II/III activity [1]: inhibited complex II/III activity to a similar extent as was observed with complex II alone | Complex IV activity, % of control ([2]; 1 mM DAH, concluded to be an artifact (back reaction with oxidized cytochrome C)): 61 % of control | Effect on complex IV activity [2]: Inhibited at 1mM due to artifactual competing back reaction between oxidized cytochrome C and reduced dopamine | IC50 ([3]; read-out: IC50 for inhibition of complex I): 8 to 12 µM and 8.12 µM | Complex I/III activity, mean % of control ([4]; 200 uM DA plus tyrosinase (25U) alone (DAQ), ± sem): 7 % of control | Inhibition of complex IV ([5]; ref 29): 62.8% | Inhibition of complex IV ([5]; ref 30): 57% | Effect on complex IV ([5]; DA up to 1mM, 1 min incubation): no inhibition | Effect on complex II activity [6]: Significantly inhibited at 500 uM and 1mM | inhibition at 500 µM [6, 10]: 32.7 ± 2% | inhibition at 1000 µM [6, 10]: 41.9 ± 5.5% | Effect on complex I activity [7]: not affected; also recorded: No effect at 1mM

O=C(O)Cc1ccc(O)c(O)c1 [DOPAC-H, 3,4-dihydroxyphenylacetic acid]
Effect on complex II/III activity ([1]; lysed rat brain mitochondria, 15 min exposure at room temperature, inhibitor corrected rates): did not significantly inhibit | Effect on complex IV activity [2]: not affected; also recorded: No effect at 1mM | Effect on complex IV activity ([5]; 400 uM DOPAC, rat brain mitochondria, 2 hr pre-incubation): only marginal effects | Effect on complex II activity [6]: not significantly affected; also recorded: not attenuated; also recorded: No effect at 1mM | Effect on complex I activity [7]: not affected; also recorded: No effect at 1mM

O=C(O)CC1=CC(=O)C(=O)C=C1 [DOPAC-Q]
Effect on complex IV activity [2]: did not inhibit; also recorded: No effect up to 400 uM | IC50 ([8]; read-out: IC50 for inhibition of complex III activity, 15 min pre-incubation at room temperature, mean ± SEM): 110 µM | Effect on complex II activity [6]: did not attenuate; also recorded: No effect up to 400 uM

O[C@@H](CS)[C@@H](O)CS [DTT, dithioreitol, reference compound]
Prevention of the complex IV inhibition observed with DAH ([2]; 1 mM DAH): not prevented

CCCCCC[C@H]1C(=O)O[C@H](C)[C@H](NC(=O)c2cccc(NC=O)c2O)C(=O)O[C@@H](C)[C@@H]1OC(=O)CC(C)C [antimycin A]
Inhibition of complex III activity [8]: ≥ 95%

C#CCN(C)CCCOc1ccc(Cl)cc1Cl [clorgyline, reference compound]
Prevention of the complex IV inhibition observed with DAH ([2]; 1 mM DAH): not prevented

CC(=O)N(O)CCCCCNC(=O)CCC(=O)N(O)CCCCCNC(=O)CCC(=O)N(O)CCCCCN [desferoxamine, reference compound]
Attenuation of DA mediated inhibition of complex I activity [3]: partially attenuated

O=C(O)CC(=O)O [malonate, reference compound]
Inhibition of complex II activity ([6]; malonate 10mM, parallel control): 90–95%

CO/C(=C/C(N)=O)[C@H](C)[C@H](/C=C/c1csc(-c2csc([C@@H](C)/C=C/C=C/C(C)C)n2)n1)OC [myxothiazol]
Inhibition of complex III activity [8]: ≥ 95%

C#CCN(C)Cc1ccccc1 [pargyline, reference compound]
Prevention of the complex IV inhibition observed with DAH ([2]; 1 mM DAH): not prevented

C=C(C)[C@H]1Cc2c(ccc3c2O[C@@H]2COc4cc(OC)c(OC)cc4[C@@H]2C3=O)O1 [rotenone, reference compound]
Inhibition of complex I/III activity [4]: ≥ 95% | Inhibition of NADH-oxidase activity [9]: ≥ 90%

catalase
Prevention of the complex IV inhibition observed with DAH ([2]; 1 mM DAH): not prevented | Prevention of DAQ mediated inhibition of complex I ([7]; 50 uM DAQ plus SOD [2U] and catalase [1U] together): did not prevent
